In patent publication US9771352B2, “Hydroxyalkyl-substituted phenyltriazole derivatives and uses thereof” (BAYER PHARMA AKTIENGESELLSCHAFT, priority 2014, dated 2017) one finds IC50 and response vs control in vivo data, which are given here for 15 compounds.

Structures are written as SMILES.

One assay deals with T1, human V1a receptor (Homo sapiens, UniProt P37288).
T1 construct: expressed in transfected cells; host or cells: CHO K1 (ATCC), also stably transfected with modified aequorin
Kind of assay: Cellular in vitro assay for determining vasopressin receptor activity, V1a receptor cell line (photoprotein luminescence). It is filed as cell-based. The following applies: CHO cell line transfected with human V1a receptor; [Arg8]-vasopressin at EC50; compounds of the invention (Table 1A); read-out: IC50 hV1a.

In a further assay the target is T2, human V2 receptor (Homo sapiens, UniProt P30518).
T2 construct: expressed in transfected cells; host or cells: CHO K1 (ATCC) expressing firefly luciferase under a CRE-responsive promoter
As to the kind of experiment: Cellular in vitro assay for determining vasopressin receptor activity, V2 receptor cell line (CRE-luciferase). It is filed as cell-based. The following applies: CHO cell line transfected with human V2 receptor; [Arg8]-vasopressin at EC50; compounds of the invention (Table 1A); read-out: IC50 hV2. Put shortly:
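CHO K1 cells stably expressing human V2 receptor with CRE-driven firefly luciferase, plated the day before in DMEM/F12 with 2% FCS at 37° C. Receptor activation raises cAMP and luciferase expression; after Triton lysis and luciferin addition, luminescence is read and IC50 values derived.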

In the next assay the test system is conscious rats. As to the kind of experiment: Diuresis investigations in conscious rats kept in metabolism cages. It is filed as in vivo, Wistar rats. The following applies: Rattus norvegicus, po, read-out: Urinary volume; for response vs control in vivo at 0.3 mg/kg: dosage p.o. 0.3 mg/kg (Table 2A); for response vs control in vivo at 3 mg/kg: dosage p.o. 3.0 mg/kg (Table 2A); for response vs control in vivo at 1 mg/kg: dosage p.o. 1.0 mg/kg (Table 2A). Here is the method: Wistar rats (220-450 g body weight) are kept with free access to feed (Altromin) and drinking water. During the experiment, the animals are kept with free access to drinking water for 4 to 8 or up to 24 hours individually in metabolism cages suitable for rats of this weight class (Tecniplast Deutschland GmbH, D-82383 HohenpeiBenberg). At the beginning of the experiment, the animals are administered the test substance in a volume of 1 to 3 ml/kg body weight of a suitable solvent by means of gavage into the stomach. Control animals only receive solvent. Controls and substance tests are carried out in parallel on the same day. Control groups and substance-dose groups each consist of 4 to 8 animals. During the experiment, the urine excreted by the animals is collected continuously in a receiver at the base of the cage. The volume of urine per time unit is determined separately for each animal, and the concentration of urinary electrolytes is measured by standard methods of flame photometry. Before the beginning of the experiment, the body weight of the individual animals is determined.

T2 sequence (P30518 whole entry): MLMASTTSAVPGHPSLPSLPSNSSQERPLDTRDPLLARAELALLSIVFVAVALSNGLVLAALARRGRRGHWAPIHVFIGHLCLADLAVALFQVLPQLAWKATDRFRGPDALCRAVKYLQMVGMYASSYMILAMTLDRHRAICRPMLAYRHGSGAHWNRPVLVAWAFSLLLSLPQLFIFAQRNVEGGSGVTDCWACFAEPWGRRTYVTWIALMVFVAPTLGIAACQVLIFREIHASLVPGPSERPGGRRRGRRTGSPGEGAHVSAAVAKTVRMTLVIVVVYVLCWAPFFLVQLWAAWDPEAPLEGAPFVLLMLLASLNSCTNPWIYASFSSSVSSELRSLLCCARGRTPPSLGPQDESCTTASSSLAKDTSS
T1 sequence (P37288 whole entry): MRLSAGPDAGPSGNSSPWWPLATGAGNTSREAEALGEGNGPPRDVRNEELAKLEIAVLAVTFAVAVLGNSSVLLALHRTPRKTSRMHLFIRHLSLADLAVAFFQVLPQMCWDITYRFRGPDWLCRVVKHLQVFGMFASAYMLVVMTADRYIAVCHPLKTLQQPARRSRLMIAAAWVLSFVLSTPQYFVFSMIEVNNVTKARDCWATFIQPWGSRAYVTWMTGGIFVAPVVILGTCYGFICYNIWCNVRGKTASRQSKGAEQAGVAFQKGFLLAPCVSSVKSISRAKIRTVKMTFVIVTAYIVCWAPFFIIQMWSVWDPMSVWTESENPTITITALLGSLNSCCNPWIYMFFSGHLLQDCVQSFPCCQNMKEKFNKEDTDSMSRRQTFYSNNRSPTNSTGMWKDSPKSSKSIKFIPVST

Turning to `C[C@H](O)c1nc(Cn2nc(-c3ccc(Cl)cc3)n(C[C@H](O)C(F)(F)F)c2=O)nn1-c1cccc(F)c1` [Example 76, 5-(4-Chlorophenyl)-2-({1-(3-fluorophenyl)-5-[(1S)-1-hydroxyethyl]-1H-1,2,4-triazol-3-yl}-methyl)-4-[(2S)-3,3,3-trifluoro-2-hydroxypropyl]-2,4-dihydro-3H-1,2,4-triazol-3-one], the IC50 (usually the midpoint of a concentration-inhibition curve) turned out to be 2.5 nM at human V1a receptor and 5.1 nM at human V2 receptor. In addition, the response vs control in vivo at 0.3 mg/kg in the assay on conscious rats stood at 350%.

As for `O=c1n(Cc2nc(CO)n(-c3cccc(F)c3)n2)nc(-c2ccc(Cl)cc2)n1C[C@H](O)C(F)(F)F` [Example 2, 5-(4-Chlorophenyl)-2-{[1-(3-fluorophenyl)-5-(hydroxymethyl)-1H-1,2,4-triazol-3-yl]methyl}-4-[(2S)-3,3,3-trifluoro-2-hydroxypropyl]-2,4-dihydro-3H-1,2,4-triazol-3-one], the results for the IC50 at human V1a receptor and at human V2 receptor were 5 nM and 8.7 nM, respectively. The response vs control in vivo at 0.3 mg/kg with conscious rats was found to be 194%. The response vs control in vivo at 3 mg/kg in the assay on conscious rats is 588%.

With `O=c1n(Cc2nc(CO)n(-c3cccc(Cl)c3)n2)nc(-c2ccc(Cl)cc2)n1C[C@H](O)C(F)(F)F` [Example 1, 5-(4-Chlorophenyl)-2-{[1-(3-chlorophenyl)-5-(hydroxymethyl)-1H-1,2,4-triazol-3-yl]methyl}-4-[(2S)-3,3,3-trifluoro-2-hydroxypropyl]-2,4-dihydro-3H-1,2,4-triazol-3-one], the IC50 at human V1a receptor was 6 nM. Further, the 50% inhibitory concentration (IC50) at human V2 receptor amounted to 2.5 nM. Further, in the assay on conscious rats, the response vs control in vivo at 0.3 mg/kg turned out to be 194% and the response vs control in vivo at 3 mg/kg turned out to be 588%.

`COc1ccccc1-n1nc(Cn2nc(-c3ccc(Cl)cc3)n(C[C@H](O)C(F)(F)F)c2=O)nc1CO` [Example 3, 5-(4-Chlorophenyl)-2-{[5-(hydroxymethyl)-1-(2-methoxyphenyl)-1H-1,2,4-triazol-3-yl]methyl}-4-[(2S)-3,3,3-trifluoro-2-hydroxypropyl]-2,4-dihydro-3H-1,2,4-triazol-3-one]: the IC50 on human V1a receptor was determined as 1 nM; on human V2 receptor it was 5.6 nM. The response vs control in vivo at 0.3 mg/kg with conscious rats came to 89%. The response vs control in vivo at 3 mg/kg in the assay with conscious rats was determined as 450%.

With `Cc1cccc(-n2nc(Cn3nc(-c4ccc(Cl)cc4)n(C[C@H](O)C(F)(F)F)c3=O)nc2C(C)O)c1` (single isomer, unassigned) [Example 29], the IC50 at human V1a receptor was 2.9 nM. Also, the IC50 at human V2 receptor was determined as 0.2 nM. Further, in the assay on conscious rats, the response vs control in vivo at 0.3 mg/kg came to 404% and the response vs control in vivo at 1 mg/kg turned out to be 983%.

On to `CC(O)c1nc(Cn2nc(-c3ccc(Cl)cc3)n(C[C@H](O)C(F)(F)F)c2=O)nn1-c1ccccc1` (single isomer, unassigned) [Example 17], for which the IC50 on human V1a receptor was 2.7 nM. Moreover, the IC50 at human V2 receptor turned out to be 3.4 nM. Moreover, in the assay on conscious rats, the response vs control in vivo at 0.3 mg/kg was 404% and the response vs control in vivo at 1 mg/kg turned out to be 819%.

With `CC(O)c1nc(Cn2nc(-c3ccc(Cl)cc3)n(C[C@H](O)C(F)(F)F)c2=O)nn1-c1cc(F)cc(Cl)c1` (single isomer, unassigned) [Example 14], the IC50 on human V1a receptor was 1.3 nM; on human V2 receptor, 0.4 nM. Also, the response vs control in vivo at 1 mg/kg in the assay on conscious rats amounted to 753%.

As to `C[C@@H](O)c1nc(Cn2nc(-c3ccc(Cl)cc3)n(C[C@H](O)C(F)(F)F)c2=O)nn1-c1ccccc1Cl` [Example 83, 5-(4-Chlorophenyl)-2-({1-(2-chlorophenyl)-5-[(1R)-1-hydroxyethyl]-1H-1,2,4-triazol-3-yl}-methyl)-4-[(2S)-3,3,3-trifluoro-2-hydroxypropyl]-2,4-dihydro-3H-1,2,4-triazol-3-one], the IC50 at human V1a receptor worked out at 1 nM; on human V2 receptor, 6.7 nM. Further, the response vs control in vivo at 0.3 mg/kg in the assay on conscious rats came to 279%.

With `O=c1n(Cc2nc(CO)n(-c3ccccc3Cl)n2)nc(-c2ccc(Cl)cc2)n1C[C@H](O)C(F)(F)F` [Example 4, 5-(4-Chlorophenyl)-2-{[1-(2-chlorophenyl)-5-(hydroxymethyl)-1H-1,2,4-triazol-3-yl]methyl}-4-[(2S)-3,3,3-trifluoro-2-hydroxypropyl]-2,4-dihydro-3H-1,2,4-triazol-3-one], the IC50 at human V1a receptor was determined as 0.4 nM; at human V2 receptor it was 5.3 nM. The response vs control in vivo at 0.3 mg/kg in the assay with conscious rats was found to be 91%. Moreover, the response vs control in vivo at 1 mg/kg with conscious rats worked out at 190%.

Consider `CC(O)c1nc(Cn2nc(-c3ccc(Cl)cc3)n(C[C@H](O)C(F)(F)F)c2=O)nn1-c1cc(F)cc(Cl)c1` (single isomer, unassigned) [Example 15], for which the IC50 on human V1a receptor worked out at 38.4 nM; on human V2 receptor, 4.1 nM. The response vs control in vivo at 0.3 mg/kg in the assay on conscious rats was 412%.

For the compound `O=c1n(Cc2nc(CO)n(-c3cc(F)cc(Cl)c3)n2)nc(-c2ccc(Cl)cc2)n1C[C@H](O)C(F)(F)F` [Example 6, 2-{[1-(3-Chloro-5-fluorophenyl)-5-(hydroxymethyl)-1H-1,2,4-triazol-3-yl]methyl}-5-(4-chlorophenyl)-4-[(2S)-3,3,3-trifluoro-2-hydroxypropyl]-2,4-dihydro-3H-1,2,4-triazol-3-one], the IC50 at human V1a receptor worked out at 10.6 nM. In addition, at human V2 receptor, the IC50 turned out to be 1.7 nM. For the same compound, in the assay on conscious rats, the response vs control in vivo at 0.3 mg/kg turned out to be 132% and the response vs control in vivo at 1 mg/kg stood at 439%.

With `C[C@H](O)c1nc(Cn2nc(-c3ccc(Cl)cc3)n(C[C@H](O)C(F)(F)F)c2=O)nn1-c1cccc(Cl)c1` [Example 79, 5-(4-Chlorophenyl)-2-({1-(3-chlorophenyl)-5-[(1S)-1-hydroxyethyl]-1H-1,2,4-triazol-3-yl}-methyl)-4-[(2S)-3,3,3-trifluoro-2-hydroxypropyl]-2,4-dihydro-3H-1,2,4-triazol-3-one], the figures for the IC50 on human V1a receptor and on human V2 receptor were 3.6 nM and 1.7 nM, respectively. For the same compound, the response vs control in vivo at 0.3 mg/kg with conscious rats was 612%.

On to `C[C@H](O)c1nc(Cn2nc(-c3ccc(Cl)cc3)n(C[C@H](O)C(F)(F)F)c2=O)nn1-c1ccccc1Cl` [Example 82, 5-(4-Chlorophenyl)-2-({1-(2-chlorophenyl)-5-[(1S)-1-hydroxyethyl]-1H-1,2,4-triazol-3-yl}-methyl)-4-[(2S)-3,3,3-trifluoro-2-hydroxypropyl]-2,4-dihydro-3H-1,2,4-triazol-3-one], for which the IC50 at human V1a receptor was 0.7 nM; on human V2 receptor, 2.3 nM. For the same compound, the response vs control in vivo at 0.3 mg/kg with conscious rats was 220%. Besides, in the assay on conscious rats, the response vs control in vivo at 3 mg/kg is 828%.

For `Cc1ccccc1-n1nc(Cn2nc(-c3ccc(Cl)cc3)n(C[C@H](O)C(F)(F)F)c2=O)nc1CO` [Example 5, 5-(4-Chlorophenyl)-2-{[5-(hydroxymethyl)-1-(2-methylphenyl)-1H-1,2,4-triazol-3-yl]methyl}-4-[(2S)-3,3,3-trifluoro-2-hydroxypropyl]-2,4-dihydro-3H-1,2,4-triazol-3-one], the IC50 at human V1a receptor turned out to be 0.4 nM. For the same compound, the IC50 at human V2 receptor was 1.8 nM. Besides, in the assay on conscious rats, the response vs control in vivo at 0.3 mg/kg was 166% and the response vs control in vivo at 1 mg/kg was found to be 438%.

`Cc1ccccc1-n1nc(Cn2nc(-c3ccc(Cl)cc3)n(C[C@H](O)C(F)(F)F)c2=O)nc1C(C)O` (single isomer, unassigned) [Example 70]: the concentration for half-maximal inhibition (IC50) at human V1a receptor turned out to be 0.5 nM. At human V2 receptor, the half-maximal inhibitory concentration (IC50) worked out at 1.1 nM. Besides, in the assay with conscious rats, the response vs control in vivo at 0.3 mg/kg was found to be 139% and the response vs control in vivo at 3 mg/kg came out at 595%.
